# According to patent US20260355197A1, “METHOD FOR TREATING ATOPIC DERMATITIS” (BEIJING INNOCARE PHARMA TECH CO., LTD., priority 2023, published 2026):
# Assays:
# [1] = test system: patients with moderate to severe atopic dermatitis; assay: EASI-75 (difference from placebo) of ICP-332 versus other drugs for treating AD as monotherapy, not head-to-head; format: in vivo, human; settings: ICP-332 4 weeks, other drugs 12 or 16 weeks, approved recommended doses, phase III published literature
# Source text: The treatment period for ICP-332 was 4 weeks, while it was 12 or 16 weeks for other drugs with their approved recommended doses from phase III studies. The data of other drugs are based on available published literature.
# This is a randomized, double-blind, placebo-controlled, phase 2 study to evaluate the safety, efficacy, pharmacokinetics, and pharmacodynamics of ICP-332 (Compound A) in patients with moderate to severe atopic dermatitis.
# A total of 75 subjects with 25 subjects in each group are enrolled. • (1) ICP-332 80 mg, QD for 28 days (40 mg*2 tablets+Placebo*1 tablet) • (2) ICP-332 120 mg. QD for 28 days (40 mg*3 tablets) • (3) Placebo. QD for 28 days (Placebo*3 tablets)
# [2] = test system: patients with moderate to severe atopic dermatitis; assay: Phase 2 randomized, double-blind, placebo-controlled clinical study of ICP-332 in atopic dermatitis patients; format: in vivo, human; settings: Week 4
smiles,measurement,setting,value
Cn1cc(Nc2ncc(Cl)c(N3C[C@@H]4CN(C(=O)CC#N)C[C@]4(C)C3)n2)cn1 [ICP-332],EASI-75 (difference from placebo) versus other drugs,[1],best EASI-75 value over placebo
same,"EASI 50, EASI 75, EASI 90, IGA 0/1",[2]; 80 mg qd oral,significant improvements
same,percent change from baseline in EASI total score,[2]; 80 mg qd oral,significantly reduced the EASI total score (p<0.0001)
same,"EASI 50, EASI 75, EASI 90, IGA 0/1",[2]; 120 mg qd oral,significant improvements
same,percent change from baseline in EASI total score,[2]; 120 mg qd oral,significantly reduced the EASI total score (p<0.0001)
